Measured values reported in patent US20100310574A1, “METHODS AND COMPOSITIONS FOR THE TREATMENT AND DIAGNOSIS OF STATIN-INDUCED MYOPATHY” (Beth Israel Deaconess Medical Center, priority 2007, published 2010).
“Also recorded” adds a separate entry of the source.

Columns and labels:
[1] = Clinical data (CK) of statin-treated patients who gave muscle biopsies; format: in vivo, human; conditions: patient with muscle pain/damage concomitantly treated with the statin; one patient per line
Experimental: The atrogin-1 mRNA levels were measured in 17 human quadriceps muscle biopsies from five patients undergoing knee replacements (controls), from four patients with muscle pain but not being treated with statins, and from eight patients with muscle pain/damage concomitantly being treated with statins (the table below).
Muscle biopsies: Muscle was obtained from three groups of patients whose characteristics are detailed in the above table. The statin-treated group included four subjects with statin-induced myopathy and 4 with statin-induced rhabdomyolysis, as commonly defined (Antons et al., Am. J. Med. 119:400-409, 2006). The non-statin myopathy group included four statin-naïve subjects with undefined myopathy. Both of these groups underwent percutaneous muscle biopsies of the vastus lateralis muscle using a Bergstrom needle. The control group included five statin-naïve subjects who volunteered muscle at the time of knee arthroplasty. Muscle from subjects in all three groups was snap frozen in liquid nitrogen for subsequent analysis. All subjects signed an IRB-approved consent form.

[2] = before withdrawal in August 2001; cited from earlier work
[3] = system: differentiated C2C12 mouse myocytes; assay: C2C12 myotube morphology and diameter; format: cell-based
Description: The effect of statins on muscle cells was studied by treating differentiated C2C12 mouse myocytes with various concentrations of lovastatin. […] The reduction of myotube size was quantitated by measurement of myotube thickness. This effect was clearly visible at low lovastatin concentrations, in the range of those typically found in patients administered with this medication (Pan et al., J. Clin. Pharmacol. 30:797-801, 2002, and Hostein et al., Cancer Chemother. Pharmacol. 57:155-164, 2006).
Cell Culture: Mouse myoblast cell line C2C12 was purchased from ATCC (ATCC, Manassas, Va.) and maintained in DMEM (Mediatech, Herndon, Va.) containing 10% fetal bovine serum (Hyclone, Logan, Utah) and penicillin (100U) and streptomycin (50 ug/ml; Invitrogen, Grand Island, N.Y.). When C2C12 cells reach to 90% confluence, medium was replaced with differentiation medium of DMEM supplemented with 2% horse serum (ATCC, Manassas, Va.) to induce myotube formation. Cells were used for experiments in 4-5 days after differentiation. Lovastatin (>98% purity) (mevinolin; Sigma, St. Louis, Mo.) was prepared as a 50 mM stock solution in DMSO as reagent vehicle, further diluted in DMSO, and added into the medium. The final volume DMSO in medium is not more than 0.125%, which there is not obvious cytotoxicity. Equal volume of reagent vehicle was used for all experiments and reagent vehicle only serviced as controls. Each experiment was performed at least three times.
(§1) Myotube Fiber Size: Size was quantified by measuring a total of 200 tube diameters as described by Sandri et al. (supra). Briefly, muscle fiber size from four random fields at 100 magnification was measured using IMAGE software (Scion, Frederick, Md.). All data were expressed in Mean±S.E.M. Comparisons were made by using the Student's T-test, with p<0.05 being considered statistically significant.

C2C12 myotubes = assay: Proteolytic rate in C2C12 myotubes (3H-tyrosine release); format: cell-based, mouse; conditions: compared with control cultures
Experimental: Measurement of Proteolytic Rate: Differentiated C2C12 myotubes were incubated with ^3H-tyrosine (5 μCi/mL media) for 20 hours to label cell proteins, and switched to medium containing 2 mM unlabeled tyrosine, vehicle, lovastatin, or dexamethasone for another 20 hours. After media replacement, an aliquot of medium was collected once per hour for 4 hours. The collected media was treated with TCA (10% w/v final concentration) to precipitate protein. Since the high concentration of unlabeled tyrosine in the media prevents re-incorporation of ^3H-tyrosine into new protein, the radioactivity in the supernatant represent degraded protein from the pool of prelabeled, intracellular, long-lived proteins. Proteolytic rate was defined as the percentage of released radioactivity per hour calculated from the period of 20 hours to 24 hours of lovastatin or dexamethasone treatment, when ^3H-tyrosine release is linear over time. These rates were compared with proteolytic rates in parallel cultures treated with vehicle alone. All measurements were done in triplicate and then independently repeated at least twice.

atrogin-1 promoter = assay: Atrogin-1 promoter luciferase reporter in zebrafish embryos; format: in vivo, Danio rerio; conditions: 0.5 μM
Experimental: (§2) The effect of lovastatin on FoxO-dependent activation of the atrogin-1 promoter in zebrafish embryos was also examined. Embryos were injected with a proximal fragment of the atrogin-1 promoter linked to luciferase or the same fragment with the FoxO site mutated (Sandri et al., Cell 117:399-412, 2004). Lovastatin (0.5 μM) stimulated the reporter luciferase activity more than 7-fold, while stimulating the FoxO-less reporter only 3-fold (FIG. 14B). […] Since lovastatin treatment still lead to a small amount of luciferase activity even in the absence of FoxO binding sites in the atrogin-1 promoter-reporter, additional signaling pathways may also be important in mediating the effects of statins on atrogin-1 expression in muscle.

functional mitochondria = assay: MitoTracker staining and FACS of cells from zebrafish embryos; format: in vivo, Danio rerio; conditions: lovastatin 0.5 or 1.0 μM
Experimental: Mitochondrial staining and FACS analysis: Embryos were treated with lovastatin (0, 0.5, 1.0 μM at 20-32 hpf) or treated with the combination of lovastatin (0.5 μM) following PGC-1α (or vehicle) cDNA injection (100 pg/embryo at the one-cell stage). 1-Phenyl-2-thiourea (0.003%; Sigma) was added at 20 hpf. After phenotypes were observed, 100 embryos from each condition were decholionated by protease and homogenized for 3-5 minutes in 0.9× phosphate buffered saline (PBS)/10% fetal bovine serum (FBS), then centrifuged at 3000 rpm for 5 minutes, digested with trypsin/EDTA and dispersed at room temperature. After adding 1 mL of 0.9×PBS/10% FBS, the dispersed cells were filtered ([…]) and washed twice with 0.9×PBS/10% FBS. The cells were incubated in 100 nM MitoTracker Red CMXRos (Invitrogen) in 0.9×PBS/10% FBS for 15 minutes in the dark. The cells were washed twice in 0.9×PBS/10% FBS and subjected to […] (FACS) analysis. EPICS XL (Beckman Coulter) was used for the fluorescence detection (absorption wavelength: 578 nm; emission wavelength: 599 nm) and data was analyzed with Expo32ADC software. Ten thousand cells were counted for each treatment condition.

atrogin-1 mRNA = assay: Atrogin-1 mRNA in C2C12 myocytes by real time PCR; format: cell-based, mouse; conditions: 10 μM
Experimental: Quantitative PCR: Atrogin-1 mRNA levels were determined by real-time PCR using the Applied Biosystems® 7500 real-time PCR analyzer according to the method recently described by others (Okuno et al., Blood 100:4420-4426, 2002, and Yang et al., J. Cell Biochem. 94:1058-1067, 2005). Multiplexed amplification reactions were performed using 18S rRNA as an endogenous control (18S rRNA primers/VIC-labeled probe Applied Biosystems #4310893E) using the TaqMan One Step PCR Master Mix reagents Kit (#4309169, Applied Biosystems). The following settings were used: Stage 1 (reverse transcription): 48° C. for 30 min; Stage 2 (denaturation): 95° C. for 10 min; and Stage 3 (PCR): 95° C. for 15 sec and 60° C. for 60 sec for 40 cycles. […] Fluorescence data were analyzed by SDS1.7 software (Applied Biosykems). […] All RNA samples were analyzed in triplicate, with the mean value used in subsequent analyses.
Cell Culture: Mouse myoblast cell line C2C12 was purchased from ATCC (ATCC, Manassas, Va.) and maintained in DMEM (Mediatech, Herndon, Va.) containing 10% fetal bovine serum (Hyclone, Logan, Utah) and penicillin (100U) and streptomycin (50 ug/ml; Invitrogen, Grand Island, N.Y.). […]
Quantitative PCR: Performed as described above.

[4] = system: atrogin-1 wildtype primary myotubes; assay: Myotube size, wildtype primary mouse myotubes; format: cell-based; conditions: control (wildtype) cultures, two days of exposure
[5] = system: phosphor-Akt, phosphor-FoxO3, and phosphor-p70S6K; assay: Phosphorylated Akt/FoxO3/p70S6K in C2C12 myotubes (immunoblot); format: cell-based, mouse; conditions: 1, 2.5 or 5 μM, 24 hours
Experimental: Western Blotting Cultured cells after treatment were collected at specific times and solubilized in RIPA lysis buffer (50 mM Tris-HCl, pH 7.4; 150 mM NaCl, 1% NP-40, 0.5% sodium deoxycholate, 0.1% SDS (Boston Bioproducts, Boston Mass.), protease (Roche) and phosphatase (Sigma) inhibitor cocktail). Proteins were separated by SDS-PAGE, transferred to PVDF membranes and visualized by Western blotting using alkaline phosphatase-based CDP-star chemiluminescent detection according to manufacturer's protocol (Applied Biosystems, Bedford, Mass.).
as §2

atrogin-1 protein = assay: Atrogin-1 protein in C2C12 myotubes by Western blotting; format: cell-based, mouse; conditions: vs non-treated control cells
Experimental: Western Blotting Cultured cells after treatment were collected at specific times and solubilized in RIPA lysis buffer (50 mM Tris-HCl, pH 7.4; 150 mM NaCl, 1% NP-40, 0.5% sodium deoxycholate, 0.1% SDS (Boston Bioproducts, Boston Mass.), protease (Roche) and phosphatase (Sigma) inhibitor cocktail). […]

atrogin-1 (−/−) myotubes = assay: Myotube size, atrogin-1 (-/-) primary mouse myotubes; format: cell-based; conditions: 0.25 and 1.0 μM
Experimental: as §1
Cell Culture: Primary mouse myoblasts from atrogin-1 null mice (Regeneron, Tarrytown N.Y.) were isolated as follows: muscle was removed from the hind limbs of two-week old mice. After treatment with 0.1% collagenase D and Dispase II (Roche, Indianapolis, Ind.), the isolated cells were plated on collagen (Type I, Roche, Indianapolis, Ind.)-coated dishes. Myoblasts were subsequently enriched and cultured in F-10 nutrient medium with 20% fetal calf serum and 2.5 ng/ml bFGF (Invitrogen, Grand Island, N.Y.). Myotubes were induced in differentiation medium. All media contained 1× Primocin (InvivoGen, San Diego, Calif.). The cultures were maintained at 37° C., under 5% and 8% CO2 humidified air atmosphere for myoblasts and myotubes, respectively. Cultures were ready to use in assays on day 2 in differentiation medium when the myotubes had formed and were contracting.

zebrafish atrogin-1 = assay: Atrogin-1 mRNA and protein expression in zebrafish embryos; format: in vivo, Danio rerio; conditions: lovastatin treatment
Experimental: (§3) Zebrafish lines and maintenance: Adult zebrafish (Danio rerio) were maintained as described under standard laboratory conditions at 28.5° C. in a 14 h light/10 h dark cycle (Westerfield, “The zebrafish book: a guide for the laboratory use of zebrafish Danio (Brachydanio) rerio,” Institute of Neuroscience, University of Oregon, Eugene, Oreg., 1993). Developmental stages were determined by embryo morphology and hours post fertilization (hpf) (Kimmel et al., Dev. Dyn. 203:253-310, 1995). To examine the effects of statin, the embryos at 20-24 hpf were immersed in the embryonic water ([…], 170 μM KCl, 330 μM CaCl2, and 330 μM MgSO4) at a concentration of 0.005-10 μM lovastatin (Mevinolin; Sigma, St. Louis, Mo.) including 0.003% 1-phenyl-2-thiourea (Sigma) to inhibit pigmentation in 24 well plate. After 32 hpf, the embryos were fixed by 4% paraformaldehyde in PBS.
Western blotting: Zebrafish embryos were homogenized in SDS sample buffer (30 embryos/30 μl of sample buffer) with microfuge pestle until the lysate became uniform in consistency and there was no longer stringy inside. The lysate was boiled for 5 minutes and centrifuged supernatant was processed for Western blotting (Hanai et al., J. Cell Biol. 158:529-539, 2002).

Zebrafish embryos = assay: Zebrafish embryo muscle fiber damage (myosin heavy chain staining); format: in vivo, Danio rerio
Experimental: Zebrafish embryos were treated with lovastatin from 20 hpf to 32 hpf at different concentrations (0-5 μM).
as §3
Antibody staining: Whole zebrafish staining: Zebrafish embryos were fixed by 4% paraformaldehyde in PBS overnight. After fixation, the embryos were washed by PBS, stored for at least 1 h at −20° C. in methanol, and permeabilized for 30 min at −20° C. in acetone. Embryos were incubated with blocking buffer (1% BSA, 0.1% Tween-20 in PBS), and incubated with diluted primary antibody, anti-slow twitch myosin F59 (1: 200; Developmental Studies Hybridoma Bank (DSHB), Department of Biological Sciences, University of Iowa, Iowa City, Iowa 52242) (Crow and Stockdale, Dev. Biol. 118:333-342, 1986; and Devoto et al., Development 122:3371-3380, 1996) in blocking solution for overnight at 4° C. Staining was detected by using goat anti-mouse TRITC secondary antibody (1:200; Southern Biotechnology Associates, Inc.) in blocking solution for 4 h at RT (Birely et al., Dev. Biol. 280:162-176, 2005). Cross-sectional staining: Embryos were fixed overnight in 4% paraformaldehyde (PFA) and cryoprotected by the overnight incubation with increasing concentrations of sucrose (up to 30%). Samples were embedded in OCT compound and then equilibrated to −80° C. Sections (10 μm thick) were collected on SuperFrost/Plus slides and dried. Sections were rehydrated in PBS and blocked for 1 h in blocking buffer (1% BSA, 0.1% Tween in PBS). Sections were incubated overnight at 4° C. with primary antibody diluted in blocking buffer. Sections were stained with antibody as above.

Compound: CC(C)c1c(C(=O)Nc2ccccc2)c(-c2ccccc2)c(-c2ccc(F)cc2)n1CC[C@@H](O)C[C@@H](O)CC(=O)O [atorvastatin]
- CK (clinical data) [1]: Muscle pain and weakness, CK 47; also recorded: Muscle pain and weakness, CK 73

Compound: COCc1c(C(C)C)nc(C(C)C)c(/C=C/[C@@H](O)C[C@@H](O)CC(=O)O)c1-c1ccc(F)cc1 [cerivastatin]
- rhabdomyolysis-related deaths [2]: approximately 100

Compound: CC[C@H](C)C(=O)O[C@H]1C[C@@H](C)C=C2C=C[C@H](C)[C@H](CC[C@@H]3C[C@@H](O)CC(=O)O3)[C@H]21 [lovastatin]
- loss of myotubes ([3]; by 5 days): almost complete loss of myotubes
- myotube morphology / thickness ([3]; increasing concentrations (0-10 μM) vs vehicle): myotubes became progressively thinner
- treatment time after which morphological changes were visible ([3]; myotube cultures): 24 hours
- increase in the rate of bulk muscle proteolysis (C2C12 myotubes): 5-10%
- stimulation of reporter luciferase activity (atrogin-1 promoter; FoxO-less (FoxO site mutated) reporter): 3 fold
- stimulation of reporter luciferase activity (atrogin-1 promoter; atrogin-1 promoter fragment with FoxO site): more than 7 fold
- MitoTracker fluorescence intensity (functional mitochondria): shifted to the left
- atrogin-1 mRNA (atrogin-1 mRNA; 6 hours): significantly increased
- atrogin-1 mRNA induction (atrogin-1 mRNA; 36 hours): ≤ 6 fold
- decrease of tube diameter [4]: ≤ 50%
- phosphorylated signaling intermediates [5]: dose-dependent reduction
- atrogin-1 induction (protein) (atrogin-1 protein; 1.0 μM, 48 hours): about 1.5 fold
- atrogin-1 induction (protein) (atrogin-1 protein; 10 μM): about 2.5 fold
- CK (clinical data) [1]: Weakness, CK 932
- change in myotube size (atrogin-1 (−/−) myotubes): Little change in myotube size
- zebrafish atrogin-1 mRNA and protein level (zebrafish atrogin-1): clearly and dose-dependently elevated
- muscle phenotype (Zebrafish embryos; 0-5 μM, 20 hpf to 32 hpf): clear dose-dependent muscle phenotypes
- embryos with class 1 defects (Zebrafish embryos; 0.05 μM): more than 50%
- embryos with class 3 changes (Zebrafish embryos; 5 μM): over 60%
- concentration giving class 1 changes (bowing, gap formation, fiber disruption) (Zebrafish embryos; 20 hpf to 32 hpf): 25 to 50 nM
- concentration giving class 2 changes (fiber thinning, attenuated MHC staining) (Zebrafish embryos; 20 hpf to 32 hpf): 50 to 500 nM
- concentration giving class 3 changes (irregular somite boundaries) (Zebrafish embryos; 20 hpf to 32 hpf): 1000 to 5000 nM

Compound: CCC(C)(C)C(=O)O[C@H]1C[C@@H](C)C=C2C=C[C@H](C)[C@H](CC[C@@H]3C[C@@H](O)CC(=O)O3)[C@H]21 [simvastatin]
- CK (clinical data) [1]: Weakness, CK 51,080; also recorded: Weakness, CK 8,264; also recorded: Weakness, CK 39,000; also recorded: Muscle pain and weakness, CK 62; also recorded: Muscle pain and weakness, CK 649
